Assay results: patent publication US10799552B2, “Methods for treating diabetic neurotherapy” (Massachusetts Eye and Ear Infirmary, priority 2011, dated 2020)
Peptide text beside a SMILES is read from it. * marks the point of attachment. Cbz = O=C(OCc1ccccc1)*; CH2F = FC*

Test system: optic nerve axons of retinal ganglion cells
Experiment: Axon regeneration after optic nerve crush injury (βIII-tubulin staining of optic nerve sections)
Format: in vivo, mouse
Conditions: intravitreal, ZVAD 300 μM and/or Nec-1 4 mM; 14 days after optic nerve injury; FIGS. 3B-3E
Description: Intravitreal injections were performed as follows. Briefly, the tip of a 33 gauge needle (Hamilton, Reno, Nev.) was carefully inserted through the sclera into the intravitreal space to reduce intraocular pressure. Then, the needle was extracted, loaded with compounds and tangentially reinserted through the sclera into the intravitreal space, inducing a self-sealing wound tunnel. After injection, the absence of choroidal bleeding was confirmed. At specified times after injury, mice were sacrificed with an overdose of sodium pentobarbital, and eyes were enucleated.
To investigate the efficacy of necrosis inhibitor and pan-caspase inhibitor in promoting axon regeneration, eight-weeks-old mice were subjected to optic nerve crush surgery as previously described. […]
Axon regeneration was assessed by obtaining longitudinal sections of the optic nerve and counting the number of axons at pre-specified distances from the injury site. […] Axons were counted manually in at least eight longitudinal sections per case at pre-specified distances from the injury site. The number of regenerating axons at various di stances are determined as described previously (Leon et al., (2000) J NEUROSCI 20: 4615-4626). […]

Structure (SMILES) | axon regeneration (axon staining beyond injury site)
COC(=O)CC(NC(=O)C(C)NC(=O)C(NC(=O)OCc1ccccc1)C(C)C)C(=O)CF (stereo not drawn) [ZVAD, Benzyloxycarbonyl-Val-Ala-Asp(OMe)-fluoromethylketone] (Cbz-Val-Ala-Asp(OMe)-CH2F; configuration not given here) | minimal effects on axon regeneration
CN1C(=O)NC(Cc2c[nH]c3c(Cl)cccc23)C1=O (centres unmarked) [Nec-1] | minimal effects on axon regeneration
